# What was measured:
# Experiment in all cases: relative viability (nuclei count vs DMSO), 5 days (fraction); higher = more cells survive
# [1] = compound: CC1=NC=CC(=C1)C2=CC=C(C=C2)CC(=O)NC3=CC=C(C=C3)C4=CN=CC=C4 [Wnt-C59]
# Outline: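 Following overnight incubation at 37 °C, lung cancer cell lines in 1536-well plates were pinned with five library-drug doses (not always all listed) in √10 steps on vehicle-anchored plates. The cells then spent 5 days without medium change before a combined fix, permeabilisation and Hoechst stain, 4× imaging and MetaXpress nuclear counts. Viability is the treated-to-vehicle ratio of nuclei, taken as the median across plates. Only plates with control CV below 25% and at least one doubling passed.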
# [2] = compound: CC1=NC=CC(=C1)C2=CC=C(C=C2)CC(=O)NC3=CC=C(C=C3)C4=CN=CC=C4 [Wnt-C59] + N=C(N)NC(=N)NCCc1ccccc1 [Phenformin] (partner 250 µM)
# Outline: (§1)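 Dosing by pin tool came one day after lung cancer cell lines were seeded in 1536-well plates, using either one drug or a fixed anchor-drug dose plus five library-drug doses (not always all listed) in √10 steps. After 5 days, nuclei were counted on 4× images. Relative viability is treated-well nuclei count divided by vehicle-well nuclei count, and values are medians of duplicate plates.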
# [3] = compound: CC1=NC=CC(=C1)C2=CC=C(C=C2)CC(=O)NC3=CC=C(C=C3)C4=CN=CC=C4 [Wnt-C59] + COc1cc2c(Oc3ccc(NC(=O)C4(C(=O)Nc5ccc(F)cc5)CC4)cc3F)ccnc2cc1OCCCN1CCOCC1 [Foretinib] (partner 0.25 µM)
# Outline: as §1
# [4] = compound: CS(=O)(=O)CCNCc1ccc(-c2ccc3ncnc(Nc4ccc(OCc5cccc(F)c5)c(Cl)c4)c3c2)o1 [Lapatinib] + N=C(N)NC(=N)NCCc1ccccc1 [Phenformin] (partner 250 µM)
# Outline: as §1
Cell Line,relative viability ([1]; 0.001 µM),relative viability ([1]; 0.01 µM),relative viability ([1]; 0.03162 µM),relative viability ([1]; 0.1 µM),relative viability ([2]; first compound 0.001 µM),relative viability ([2]; first compound 0.01 µM),relative viability ([2]; first compound 0.03162 µM),relative viability ([2]; first compound 0.1 µM),relative viability ([3]; first compound 0.001 µM),relative viability ([3]; first compound 0.01 µM),relative viability ([3]; first compound 0.03162 µM),relative viability ([3]; first compound 0.1 µM),relative viability ([4]; first compound 0.02 µM),relative viability ([4]; first compound 0.06325 µM),relative viability ([4]; first compound 0.2 µM),relative viability ([4]; first compound 0.6325 µM),relative viability ([4]; first compound 2 µM)
NCI-H647,0.914,1,0.934,0.946,0.479,0.453,0.578,0.481,1.24,0.978,1.36,1.18,0.352,0.416,0.517,0.631,0.219
NCI-H650,0.886,0.952,1.03,0.974,0.441,0.457,0.483,0.5,0.956,1.07,1.07,0.947,–,0.467,0.428,0.456,0.473
NCI-H661,0.961,1.01,1.08,0.99,0.292,0.311,0.27,0.288,1,0.981,1.06,0.976,0.273,0.263,0.273,0.265,0.268
NCI-H727,1.01,0.854,0.867,0.931,0.337,–,0.545,0.66,0.983,0.917,0.887,0.904,–,–,0.536,0.511,0.508
NCI-H838,0.981,0.985,0.964,0.995,0.573,0.582,0.588,0.624,1.04,0.961,1.08,1.03,0.685,0.381,0.675,0.683,0.511
NCI-H1355,1.02,0.885,1.01,0.905,0.446,0.42,0.456,0.475,0.949,0.922,1.01,0.876,–,0.37,0.455,0.428,0.367
NCI-H1395,0.995,0.873,0.952,1.03,0.442,0.423,0.495,0.429,0.99,1.01,0.984,1,0.45,0.431,0.442,0.444,0.432
NCI-H1437,0.997,0.997,1,1.03,0.297,0.296,0.297,0.26,1.31,1.28,1.29,1.26,0.289,0.278,0.258,0.303,0.253
NCI-H1563,1.07,0.933,0.954,0.941,0.688,0.673,0.693,0.666,0.911,0.931,0.926,0.898,0.626,0.645,0.69,0.76,0.688
NCI-H1623,0.948,0.812,1.02,0.994,0.582,0.562,0.607,0.572,0.886,0.732,0.989,0.893,0.546,0.494,–,0.659,0.261
NCI-H1650,1.02,0.898,0.957,0.826,0.449,0.483,0.454,0.391,1.26,1.2,1.31,1.08,0.442,0.313,0.461,0.31,0.307
NCI-H1651,0.985,0.998,0.997,1,0.344,0.345,0.377,0.332,0.985,0.734,0.858,0.758,0.35,0.25,0.34,0.308,0.374
NCI-H1666,0.993,0.92,0.951,0.967,0.54,0.498,0.531,0.561,0.894,0.994,0.92,0.985,0.555,0.545,0.592,0.611,0.461
NCI-H1734,0.986,0.961,1.01,0.957,0.389,0.356,0.478,0.354,0.808,0.839,0.922,0.962,0.407,0.288,0.374,0.451,0.414
NCI-H1755,0.994,0.969,0.999,0.914,0.486,0.631,0.609,0.632,0.884,0.895,0.55,0.866,0.409,0.595,0.642,0.59,0.59
NCI-H1793,0.78,0.681,1.1,0.976,0.34,–,0.397,0.362,0.69,–,0.678,0.614,–,0.313,0.265,0.329,0.225
NCI-H1915,0.995,0.942,0.969,1,0.362,0.392,0.385,0.367,1.12,1.03,1.16,1.09,–,0.375,0.384,0.361,0.39

# Source: the supplement of paper PMC10307832
